Drawing on US7163947B2, “1-Amino 1H-imidazoquinolines” (3M Innovative Properties Company, priority 2003, dated 2007), this text covers melting point for 38 compounds.

By melting point is commonly meant the temperature of the solid-liquid transition. Turning to `CCCCc1nc2c(N)nc3ccccc3c2n1NC(C)C` [Example 1, 2-Butyl-N^1-isopropyl-1H-imidazo[4,5-c]quinoline-1,4-diamine], the melting point was in the range of 157.1 to 158.7 °C.
As for `CCCCc1nc2c(N)nc3ccccc3c2n1NCc1ccccc1` [Example 2, N^1-Benzyl-2-butyl-1H-imidazo[4,5-c]quinoline-1,4-diamine], the melting point was in the range of 159.3 to 160.5 °C.
Compound `Cc1nc2c(N)nc3ccccc3c2n1NC(C)C` [Example 3, N^1-Isopropyl-2-methyl-1H-imidazo[4,5-c]quinoline-1,4-diamine] had a melting point of 227 to 229 °C.
`CCOCc1nc2c(N)nc3ccccc3c2n1NCc1ccccc1` [Example 4, N^1-Benzyl-2-ethoxymethyl-1H-imidazo[4,5-c]quinoline-1,4-diamine] came in with a melting point of 152 to 155 °C.
The figure for `CCOCc1nc2c(N)nc3ccccc3c2n1NC(C)C` [Example 5, 2-Ethoxymethyl-N^1-isopropyl-1H-imidazo[4,5-c]quinoline-1,4-diamine] is 162 to 164 °C; for `CCOCc1nc2c(N)nc3ccccc3c2n1NC1CCCCC1` [Example 6, N^1-Cyclohexyl-2-(ethoxymethyl)-1H-imidazo[4,5-c]quinoline-1,4-diamine] it is 143 to 145 °C.
Turning to `CCOCc1nc2c(N)nc3ccccc3c2n1N(C)C` [Example 7, N^1,N^1-Dimethyl-2-ethoxymethyl-1H-imidazo[4,5-c]quinoline-1,4-diamine], the melting point lay in the range of 213 to 215 °C.
As for `CCOCc1nc2c(N)nc3ccccc3c2n1NC(CC)CC` [Example 9, 2-Ethoxymethyl-N^1-(1-ethylpropyl)-1H-imidazo[4,5-c]quinoline-1,4-diamine], the melting point lay within 125 to 128 °C.
As for `CCOCc1nc2c(N)nc3ccccc3c2n1NCC(C)C` [Example 10, 2-Ethoxymethyl-N^1-isobutyl-1H-imidazo[4,5-c]quinoline-1,4-diamine], the figure is 137 to 140 °C.
`CCOCc1nc2c(N)nc3c(c2n1NC(C)C)CCCC3` [Example 11, 2-Ethoxymethyl-N^1-isopropyl-6,7,8,9-tetrahydro-1H-imidazo[4,5-c]quinoline-1,4-diamine] returned a melting point of 144 to 146 °C.
`CCOCc1nc2c(N)nc3ccccc3c2n1NCCC(C)C` [Example 12, 2-Ethoxymethyl-N^1-(3-methylbutyl)-1H-imidazo[4,5-c]quinoline-1,4-diamine] returned a melting point of 129 to 132 °C.
As for `CCOCc1nc2c(N)nc3ccccc3c2n1N1CCOCC1` [Example 13, 2-Ethoxymethyl-1-(morpholin-4-yl)-1H-imidazo[4,5-c]quinolin-4-amine], the figure is 223 to 224 °C.
Take `CCOCc1nc2c(N)nc3ccccc3c2n1NCCCNS(C)(=O)=O` [Example 14, N-{3-[(4-Amino-2-ethoxymethyl-1H-imidazo[4,5-c]quinolin-1-yl)amino]propyl}methanesulfonamide]: the melting point fell in the range of 148 to 150 °C.
`CCOCc1nc2c(N)nc3ccccc3c2n1NCCCNC(=O)Nc1ccccc1` [Example 15, 1-{3-[(4-Amino-2-ethoxymethyl-1H-imidazo[4,5-c]quinolin-1-yl)amino]propyl}-3-phenylurea]: the melting point lay within 177 to 179 °C.
Consider `CCCc1nc2c(N)nc3ccccc3c2n1NC(C)C` [Example 16, N^1-Isopropyl-2-propyl-1H-imidazo[4,5-c]quinoline-1,4-diamine], for which the melting point is 181 to 184 °C.
The compound `CCCc1nc2c(N)nc3c(c2n1NC(C)C)CCCC3` [Example 17, N^1-Isopropyl-2-propyl-6,7,8,9-tetrahydro-1H-imidazo[4,5-c]quinoline-1,4-diamine] returned a melting point of 162 to 164 °C.
On to `CCCc1nc2c(N)nc3cc(-c4cccnc4)ccc3c2n1NC(C)C` [Example 19, N^1-Isopropyl-2-propyl-7-(pyridin-3-yl)-1H-imidazo[4,5-c]quinoline-1,4-diamine], for which the melting point was 218 to 219 °C.
`CCOCc1nc2c(N)nc3cc(OCc4ccccc4)ccc3c2n1NC(C)C` [Example 20, 7-Benzyloxy-2-ethoxymethyl-N^1-isopropyl-1H-imidazo[4,5-c]quinoline-1,4-diamine] returned a melting point of 194 to 196 °C.
`CCOCc1nc2c(N)nc3ccccc3c2n1NCCCNC(=O)N1CCOCC1` [Example 23, [3-(4-Amino-2-ethoxymethyl-1H-imidazo[4,5-c]quinolin-1-ylamino)propyl]morpholine-4-carboxamide] gave a melting point of 158 to 160 °C.
The figure for `CCOCc1nc2c(N)nc3ccccc3c2n1NCCCNC(=O)C1CCCC1` [Example 24, N-(3-{[4-Amino-2-(ethoxymethyl)-1H-imidazo[4,5-c]quinolin-1-yl]amino}propyl)cyclopentanecarboxamide] is 75 to 77 °C; for `CCOCc1nc2c(N)nc3ccccc3c2n1NCCCNC(=O)NC(C)C` [Example 25, 1-(3-{[4-Amino-2-(ethoxymethyl)-1H-imidazo[4,5-c]quinolin-1-yl]amino}propyl)-3-isopropylurea] it is 174 to 177 °C; for `CCOCc1nc2c(N)nc3c(c2n1NCCCNC(=O)NC(C)C)CCCC3` [Example 26, 1-(3-{[4-Amino-2-(ethoxymethyl)-6,7,8,9-tetrahydro-1H-imidazo[4,5-c]quinolin-1-yl]amino}propyl)-3-isopropylurea] it is 185 to 187 °C.
Regarding `CCCc1nc2c(N)nc3cc(-c4cccc(NS(C)(=O)=O)c4)ccc3c2n1NC(C)C` [Example 27, N-{3-[4-Amino-1-(isopropylamino)-2-propyl-1H-imidazo[4,5-c]quinolin-7-yl]phenyl}methanesulfonamide], the melting point was 217 to 227 °C.
`CCOCc1nc2c(N)nc3c(c2n1NCCCNC(=O)N1CCOCC1)CCCC3` [Example 28, N-(3-{[4-Amino-2-(ethoxymethyl)-6,7,8,9-tetrahydro-1H-imidazo[4,5-c]quinolin-1-yl]amino}propyl)morpholine-4-carboxamide] had a melting point of 152 to 154 °C.
As for `CCCc1nc2c(N)nc3cc(-c4cccc(C(=O)N5CCOCC5)c4)ccc3c2n1NC(C)C` [Example 29, N^1-Isopropyl-7-[3-(morpholin-4-ylcarbonyl)phenyl]-2-propyl-1H-imidazo[4,5-c]quinoline-1,4-diamine], the figure is 274 to 276 °C; as for `CCOCc1nc2c(N)nc3cc(OCCCNS(C)(=O)=O)ccc3c2n1NC(C)C` [Example 30, N-(3-{[4-Amino-2-(ethoxymethyl)-1-(isopropylamino)-1H-imidazo[4,5-c]quinolin-7-yl]oxy}propyl)methanesulfonamide], 181 to 183 °C.
Regarding `CCCc1nc2c(N)nc3cc(-c4ccccc4)ccc3c2n1NC(C)C` [Example 31, N^1-Isopropyl-7-phenyl-2-propyl-1H-imidazo[4,5-c]quinoline-1,4-diamine], the melting point is 217 to 220 °C.
`CCOCc1nc2c(N)nc3ccccc3c2n1NCCCNC(=O)C(C)C` [Example 32, N-(3-{[4-Amino-2-(ethoxymethyl)-1H-imidazo[4,5-c]quinolin-1-yl]amino}propyl)-2-methylpropanamide] yielded a melting point of 108 to 110 °C.
Take `CCOCc1nc2c(N)nc3c(c2n1NCCCNC(=O)C(C)C)CCCC3` [Example 33, N-(3-{[4-Amino-2-(ethoxymethyl)-6,7,8,9-tetrahydro-1H-imidazo[4,5-c]quinolin-1-yl]amino}propyl)-2-methylpropanamide]: the melting point lay within 163 to 165 °C.
The compound `CCOCc1nc2c(N)nc3ccccc3c2n1NCCCNC(C)=O` [Example 34, N-(3-{[4-Amino-2-(ethoxymethyl)-1H-imidazo[4,5-c]quinolin-1-yl]amino}propyl)acetamide] showed a melting point of 178 to 181 °C.
The figure for `CCCc1nc2c(N)nc3cc(CCc4cccnc4)ccc3c2n1NC(C)C` [Example 35, N^1-Isopropyl-2-propyl-7-(2-pyridin-3-ylethyl)-1H-imidazo[4,5-c]quinoline-1,4-diamine] is 100 to 103 °C.
As for `CCc1nc2c(N)nc3ccccc3c2n1NC(C)C` [Example 36, 2-Ethyl-N^1-isopropyl-1H-imidazo[4,5-c]quinoline-1,4-diamine], the figure is 245 to 247 °C; as for `CCOCc1nc2c(N)nc3c(c2n1NCCCNC(C)=O)CCCC3` [Example 37, N-(3-{[4-Amino-2-(ethoxymethyl)-6,7,8,9-tetrahydro-1H-imidazo[4,5-c]quinolin-1-yl]amino}propyl)acetamide], 198 to 200 °C; as for `CCNC(=O)NCCCNn1c(COCC)nc2c(N)nc3ccccc3c21` [Example 38, 1-(3-{[4-Amino-2-(ethoxymethyl)-1H-imidazo[4,5-c]quinolin-1-yl]amino}propyl)-3-ethylurea], 138 to 141 °C.
Compound `CCNC(=O)NCCCNn1c(COCC)nc2c(N)nc3c(c21)CCCC3` [Example 39, 1-(3-{[4-Amino-2-(ethoxymethyl)-6,7,8,9-tetrahydro-1H-imidazo[4,5-c]quinolin-1-yl]amino}propyl)-3-ethylurea] displayed a melting point of 189 to 191 °C.
Turning to `CCc1nc2c(N)nc3ccccc3c2n1NCCCNC(C)=O` [Example 40, N-{3-[(4-Amino-2-ethyl-1H-imidazo[4,5-c]quinolin-1-yl)amino]propyl}acetamide], the melting point was in the range of 167 to 169 °C.
`CCc1nc2c(N)nc3c(c2n1NCCCNC(C)=O)CCCC3` [Example 41, N-{3-[(4-Amino-2-ethyl-6,7,8,9-tetrahydro-1H-imidazo[4,5-c]quinolin-1-yl)amino]propyl}acetamide]: the melting point lay in the range of 175 to 176 °C.
The figure for `CC(C)Nn1c(CO)nc2c(N)nc3ccccc3c21` [Example 42, [4-Amino-1-(isopropylamino)-1H-imidazo[4,5-c]quinolin-2-yl]methanol] is 228 to 229 °C.
